Reference: publication PMC3827627 (ACS chemical biology, 2013)

How the values were obtained:
PKA-RIα holoenzyme = PKA-RIα holoenzyme (Bos taurus, UniProt P00514); type: biochemical; conditions: for EC50: read-out: RIα EC50, LiReC assay, 6 nM PKA holoenzyme, 3 nM TR-IP20
RIIβ-S112A holoenzyme = RIIβ-S112A holoenzyme (Rattus norvegicus, UniProt P12369, S112A); type: biochemical; conditions: LiReC assay; for EC50: read-out: RIIβ EC50, RIIβ-S112A holoenzyme, 6 nM PKA holoenzyme, 3 nM TR-IP20
RIIβ-S112A holoenzyme, sequence (P12369 108-402 S112A): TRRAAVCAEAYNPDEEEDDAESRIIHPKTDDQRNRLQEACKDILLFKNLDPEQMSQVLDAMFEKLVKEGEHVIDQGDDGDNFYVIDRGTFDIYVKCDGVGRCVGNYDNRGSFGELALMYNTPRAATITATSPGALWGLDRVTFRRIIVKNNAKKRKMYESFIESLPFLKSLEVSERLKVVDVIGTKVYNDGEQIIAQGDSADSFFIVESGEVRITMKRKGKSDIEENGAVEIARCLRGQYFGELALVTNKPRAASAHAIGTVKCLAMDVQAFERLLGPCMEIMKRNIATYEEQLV

PKA-RIα holoenzyme, sequence (P00514 92-380): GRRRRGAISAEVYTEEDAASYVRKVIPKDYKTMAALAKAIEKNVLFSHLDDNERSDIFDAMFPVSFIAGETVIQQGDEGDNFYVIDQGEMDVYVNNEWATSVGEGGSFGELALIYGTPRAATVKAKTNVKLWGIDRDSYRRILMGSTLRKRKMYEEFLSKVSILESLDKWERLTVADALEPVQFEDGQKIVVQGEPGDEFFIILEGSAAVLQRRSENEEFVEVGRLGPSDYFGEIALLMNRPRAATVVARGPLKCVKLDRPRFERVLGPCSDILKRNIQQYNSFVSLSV

2-OMe cAMP
EC50 (PKA-RIα holoenzyme): 5670 nM

O=C(Nc1ncnc2c1ncn2[C@@H]1O[C@@H]2COP(=O)(O)OC2C1O)c1ccccc1 (stereo in doubt) [6-Bnz cAMP]
EC50 (PKA-RIα holoenzyme): 170 nM | EC50 (RIIβ-S112A holoenzyme): 35 nM

Nc1nc(Cl)nc2c1ncn2[C@@H]1O[C@@H]2COP(=O)(O)OC2[C@@H]1O (stereo partly shown) [2-Cl cAMP]
EC50 (PKA-RIα holoenzyme): 42 nM | EC50 (RIIβ-S112A holoenzyme): 45 nM

O=[P@]1(S)OC[C@H]2O[C@@H](n3cnc4cc(Cl)c(Cl)cc43)[C@H](O)[C@@H]2O1 [5,6 DCl BIMPS]
EC50 (PKA-RIα holoenzyme): 270 nM | EC50 (RIIβ-S112A holoenzyme): 129 nM

CCCC(=O)Nc1ncnc2c1ncn2[C@@H]1O[C@@H]2COP(=O)(O)O[C@H]2[C@H]1O [6-MB cAMP]
EC50 (PKA-RIα holoenzyme): 140 nM | activation of RIIβ holoenzymes (in words) (RIIβ-S112A holoenzyme): potent RIIβ activators | EC50 (RIIβ-S112A holoenzyme): 39 nM

CC(C)(C)NC(=O)Nc1ncnc2c1ncn2[C@@H]1O[C@@H]2COP(=O)(O)O[C@H]2[C@H]1O [6-MBC cAMP]
EC50 (PKA-RIα holoenzyme): 289 nM | EC50 (RIIβ-S112A holoenzyme): 59 nM

O=P1(O)OC[C@H]2O[C@@H](n3cnc4c(Nc5ccccc5)ncnc43)[C@@H](O)C2O1 (stereo partly shown) [6-Phe cAMP]
EC50 (PKA-RIα holoenzyme): 92 nM | EC50 (RIIβ-S112A holoenzyme): 20 nM

NCCCCCCNc1nc2c(N)ncnc2n1[C@@H]1O[C@@H]2COP(=O)(O)O[C@H]2[C@H]1O [8-AHA cAMP]
EC50 (PKA-RIα holoenzyme): 116 nM | EC50 (RIIβ-S112A holoenzyme): 197 nM

Nc1ncnc2c1nc(Br)n2[C@@H]1O[C@@H]2COP(=O)(O)O[C@H]2[C@H]1O [8-Br cAMP]
EC50 (PKA-RIα holoenzyme): 81 nM | EC50 (RIIβ-S112A holoenzyme): 184 nM

Nc1ncnc2c1nc(Sc1ccc(Cl)cc1)n2[C@@H]1O[C@@H]2COP(=O)(O)O[C@H]2[C@H]1O [8-CPT cAMP]
EC50 (PKA-RIα holoenzyme): 33 nM | EC50 (RIIβ-S112A holoenzyme): 149 nM

Nc1ncnc2c1nc(Cl)n2[C@@H]1O[C@@H]2COP(=O)(O)O[C@H]2[C@H]1O [8-Cl cAMP]
EC50 (PKA-RIα holoenzyme): 58 nM | EC50 (RIIβ-S112A holoenzyme): 275 nM

CCCCCCNc1nc2c(N)ncnc2n1[C@@H]1O[C@@H]2COP(=O)(O)OC2[C@@H]1O (stereo partly shown) [8-HA cAMP]
EC50 (PKA-RIα holoenzyme): 358 nM | EC50 (RIIβ-S112A holoenzyme): 1150 nM

CNc1nc2c(N)ncnc2n1[C@@H]1O[C@@H]2COP(=O)(O)O[C@H]2[C@H]1O [8-MA cAMP]
EC50 (PKA-RIα holoenzyme): 102 nM | EC50 (RIIβ-S112A holoenzyme): 223 nM

Nc1ncnc2c1nc(N1CCCCC1)n2[C@@H]1O[C@@H]2COP(=O)(O)O[C@H]2[C@H]1O [8-PIP cAMP]
EC50 (PKA-RIα holoenzyme): 1020 nM | EC50 (RIIβ-S112A holoenzyme): 3950 nM

CCCN(CCC)c1ncnc2c1ncn2[C@@H]1O[C@@H]2COP(=O)(O)O[C@H]2[C@H]1O [HE33]
fold increase in EC50 relative to cAMP (PKA-RIα holoenzyme; RIα holoenzyme, HE33 vs cAMP): 10 fold | EC50 (PKA-RIα holoenzyme): 414 nM | EC50 (RIIβ-S112A holoenzyme): 45 nM

Nc1ncnc2c1ncn2[C@@H]1O[C@@H]2COP(O)(=S)O[C@H]2[C@H]1O (stereo partly shown) [Sp cAMP]
EC50 (PKA-RIα holoenzyme): 1590 nM | EC50 (RIIβ-S112A holoenzyme): 2270 nM

O=P1(S)OCC2OC(n3cnc4cc(Cl)c(Cl)cc43)C(O)C2O1 (stereo not shown) [Sp-5,6-DCl BIMPS]
EC50 (PKA-RIα holoenzyme): 344 nM | EC50 (RIIβ-S112A holoenzyme): 83 nM

Nc1ncnc2c1nc(Br)n2[C@@H]1O[C@@H]2COP(O)(=S)O[C@H]2[C@H]1O (stereo partly shown) [Sp-8-B cAMP]
EC50 (PKA-RIα holoenzyme): 1360 nM | EC50 (RIIβ-S112A holoenzyme): 435 nM

Nc1ncnc2c1nc(Sc1ccc(Cl)cc1)n2[C@@H]1O[C@@H]2CO[P@](=O)(S)O[C@H]2[C@H]1O [Sp-8-CPT cAMP]
EC50 (PKA-RIα holoenzyme): 342 nM | EC50 (RIIβ-S112A holoenzyme): 96 nM

Nc1ncnc2c1nc(N1CCCCC1)n2[C@@H]1O[C@@H]2COP(O)(=S)O[C@@H]2C1O (stereo partly shown) [Sp-8-PIP cAMP]
EC50 (PKA-RIα holoenzyme): 5050 nM | EC50 (RIIβ-S112A holoenzyme): 2960 nM

Nc1nc2c(ncn2[C@@H]2O[C@@H]3COP(=O)(O)O[C@H]3[C@H]2O)c(=O)[nH]1 [cGMP]
EC50 (PKA-RIα holoenzyme): 15000 nM | EC50 (RIIβ-S112A holoenzyme): 5080 nM
